Measured values published in patent US10092551B2, “Spiro-thiazolones” (Hoffmann-La Roche Inc., priority 2014, dated 2018).
Structures can show the parent of a compound that is named as a salt.

Target: human V1a receptor (Homo sapiens (Human), UniProt P37288)
Assay: human V1a receptor binding studies (3H-Vasopressin, SPA beads)
Conditions: membranes of HEK293 cells transiently transfected with human V1a receptor, Ki by Cheng-Prussoff
Protocol: The human V1a receptor was cloned by RT-PCR from total human liver RNA. The coding sequence was subcloned in an expression vector after sequencing to confirm the identity of the amplified sequence. […] Cell membranes were prepared from HEK293 cells transiently transfected with the expression vector and grown in 20 liter fermenters with the following protocol.
50 g of cells are re-suspended in 30 ml freshly prepared ice cold Lysis buffer (50 mM HEPES, 1 mM EDTA, 10 mM MgCl2 adjusted to pH=7.4+complete cocktail of protease inhibitor (Roche Diagnostics)). Homogenized with Polytron for 1 min and sonicated on ice for 2×2 minutes at 80% intensity (Vibracell sonicator). The preparation is centrifuged 20 min at 500 g at 4° C., the pellet is discarded and the supernatant centrifuged 1 hour at 43,000 g at 4° C. (19,000 rpm). The pellet is re-suspended in 12.5 ml Lysis buffer+12.5 ml Sucrose 20% and homogenized using a Polytron for 1-2 min. The protein concentration is determined by the Bradford method and aliquots are stored at −80° C. until use. For binding studies 60 mg Yttrium silicate SPA beads (Amersham) are mixed with an aliquot of membrane in binding buffer (50 mM Tris, 120 mM NaCl, 5 mM KCl, 2 mM CaCl2, 10 mM MgCl2) for 15 minutes with mixing. 50 μl of bead/membrane mixture is then added to each well of a 96 well plate, followed by 50 μl of 4 nM 3H-Vasopressin (American Radiolabeled Chemicals). For total binding measurement 100 μl of binding buffer are added to the respective wells, for non-specific binding 100 μl of 8.4 mM cold vasopressin and for compound testing 100 μl of a serial dilution of each compound in 2% DMSO. The plate is incubated 1 h at room temperature, centrifuged 1 min at 1000 g and counted on a Packard Top-Count. Non-specific binding counts are subtracted from each well and data is normalized to the maximum specific binding set at 100%. To calculate an IC 50 the curve is fitted using a non-linear regression model (XLfit) and the Ki is calculated using the Cheng-Prussoff equation.

Chain of human V1a receptor (P37288 whole entry): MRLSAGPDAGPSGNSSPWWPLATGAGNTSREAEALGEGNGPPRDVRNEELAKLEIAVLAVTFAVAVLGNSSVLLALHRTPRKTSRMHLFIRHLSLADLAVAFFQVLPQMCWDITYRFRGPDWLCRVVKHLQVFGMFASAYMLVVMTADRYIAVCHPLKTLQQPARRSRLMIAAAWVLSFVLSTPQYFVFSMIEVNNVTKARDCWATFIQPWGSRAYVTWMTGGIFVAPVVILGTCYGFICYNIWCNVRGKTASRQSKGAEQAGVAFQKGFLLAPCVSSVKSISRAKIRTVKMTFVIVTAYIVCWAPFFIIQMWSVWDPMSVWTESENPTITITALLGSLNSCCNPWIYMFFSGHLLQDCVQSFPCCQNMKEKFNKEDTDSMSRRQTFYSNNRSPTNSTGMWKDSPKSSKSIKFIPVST

| Compound | Ki (read-out: pKi hV1a (converted)) [nM] | pKi hV1a |
| --- | --- | --- |
| O=C1N=C(N2CCC3(CC2)OCc2ccccc23)SC1=C1CCCNCC1 (racemic) [Example 81, (5E/Z)-5-(azepan-4-ylidene)-2-(1′H,3H-spiro[2-benzofuran-1,4′-piperidin]-1′-yl)-1,3-thiazol-4(5H)-one hydrochloride] | 126 | – |
| O=C1N=C(N2CCC3(CC2)OCc2ccccc23)SC1=C1CCC1 [Example 75, 5-cyclobutylidene-2-(1′H,3H-spiro[2-benzofuran-1,4′-piperidin]-1′-yl)-1,3-thiazol-4(5H)-one] | – | 7.6 |
| O=C1N=C(N2CCC3(CC2)OCc2ccccc23)SC1=C(c1ccccc1)c1ccccc1 [Example 82, 5-(diphenylmethylidene)-2-(1′H,3H-spiro[2-benzofuran-1,4′-piperidin]-1′-yl)-1,3-thiazol-4(5H)-one] | – | 8.4 |
| CC(C)=C1SC(N2CCC3(CC2)OCc2ccccc23)=NC1=O [Example 30, 5-(propan-2-ylidene)-2-(1′H,3H-spiro[2-benzofuran-1,4′-piperidin]-1′-yl)-1,3-thiazol-4(5H)-one] | – | 7.8 |
| O=C1N=C(N2CCC3(CC2)OCc2ccccc23)SC1=C1Cc2ccccc2C1 [Example 161, 5-(1,3-dihydro-2H-inden-2-ylidene)-2-(1′H,3H-spiro[2-benzofuran-1,4′-piperidin]-1′-yl)-1,3-thiazol-4(5H)-one] | – | 7.8 |
| CC/C(=C1\SC(N2CCC3(CC2)OC(=O)c2ccccc23)=NC1=O)c1ccc(Cl)nc1 [Example 149, 1′-{(5E)-5-[1-(6-chloropyridin-3-yl)propylidene]-4-oxo-4,5-dihydro-1,3-thiazol-2-yl}-3H-spiro[2-benzofuran-1,4′-piperidin]-3-one] | – | 8.2 |
| O=C1N=C(N2CCC3(CC2)OCc2ccccc23)SC1=C(C1CCCCC1)C1CCCCC1 [Example 125, 5-(dicyclohexylmethylidene)-2-(1′H,3H-spiro[2-benzofuran-1,4′-piperidin]-1′-yl)-1,3-thiazol-4(5H)-one] | – | 7.2 |
| CC(C)(C)OC(=O)N1CCC/C(=C2/SC(N3CCC4(CC3)OCc3ccccc34)=NC2=O)CC1 [Example 80, tert-butyl (4E/Z)-4-[4-oxo-2-(1′H,3H-spiro[2-benzofuran-1,4′-piperidin]-1′-yl)-1,3-thiazol-5(4H)-ylidene]azepane-1-carboxylate] | – | 7.1 |
| COC/C(=C1/SC(N2CCC3(CC2)OCc2ccccc23)=NC1=O)c1ccccc1 [Example 92, (5E)-5-(2-methoxy-1-phenylethylidene)-2-(1′H,3H-spiro[2-benzofuran-1,4′-piperidin]-1′-yl)-1,3-thiazol-4(5H)-one] | – | 9.0 |
| C/C(=C1/SC(N2CCC3(CC2)OC(=O)c2ccccc23)=NC1=O)c1ccc(Cl)cc1 [Example 3, 1′-{(5E/Z)-5-[1-(4-chlorophenyl)ethylidene]-4-oxo-4,5-dihydro-1,3-thiazol-2-yl}-3H-spiro[2-benzofuran-1,4′-piperidin]-3-one] | – | 9.0 |
| C/C(=C1\SC(N2CCC3(CC2)OC(=O)c2ccccc23)=NC1=O)c1ccccc1 [Example 157, 1′-[(5E)-4-oxo-5-(1-phenylethylidene)-4,5-dihydro-1,3-thiazol-2-yl]-3H-spiro[2-benzofuran-1,4′-piperidin]-3-one] | – | 7.8 |
| O=C1N=C(N2CCC3(CC2)OCc2ccccc23)S/C1=C1/CCCCc2ccccc21 [Example 47, (5Z)-2-(1′H,3H-spiro[2-benzofuran-1,4′-piperidin]-1′-yl)-5-(6,7,8,9-tetrahydro-5H-benzo[7]annulen-5-ylidene)-1,3-thiazol-4(5H)-one] | – | 9.3 |
| C/C(=C1/SC(N2CCC3(CC2)OCc2ccccc23)=NC1=O)c1cccn1C [Example 37, (5Z)-5-[1-(1-methyl-1H-pyrrol-2-yl)ethylidene]-2-(1′H,3H-spiro[2-benzofuran-1,4′-piperidin]-1′-yl)-1,3-thiazol-4(5H)-one] | – | 9.1 |
| Cc1cc(/C=C2\SC(N3CCC4(CC3)OCc3ccccc34)=NC2=O)no1 [Example 93, 5-[(5-methyl-1,2-oxazol-3-yl)methylidene]-2-(1′H,3H-spiro[2-benzofuran-1,4′-piperidin]-1′-yl)-1,3-thiazol-4(5H)-one] | – | 8.1 |
| O=C1N=C(N2CCC3(CC2)OCc2ccccc23)SC1=C1c2ccccc2Sc2ccccc21 [Example 102, 2-(1′H,3H-spiro[2-benzofuran-1,4′-piperidin]-1′-yl)-5-(9H-thioxanthen-9-ylidene)-1,3-thiazol-4(5H)-one] | – | 8.6 |
| O=C1N=C(N2CCC3(CC2)OCc2ccccc23)S/C1=C1/CCCOC1 [Example 76, (5E/Z)-5-(dihydro-2H-pyran-3(4H)-ylidene)-2-(1′H,3H-spiro[2-benzofuran-1,4′-piperidin]-1′-yl)-1,3-thiazol-4(5H)-one] | – | 7.8 |
| O=C1N=C(N2CCC3(CC2)OCc2ccccc23)S/C1=C1/COCc2ccccc21 [Example 87, (5E/Z)-5-(1H-isochromen-4(3H)-ylidene)-2-(1′H,3H-spiro[2-benzofuran-1,4′-piperidin]-1′-yl)-1,3-thiazol-4(5H)-one] | – | 8.9 |
| O=C1N=C(N2CCC3(CC2)OCc2ccccc23)SC1=C(C1CCCC1)C1CCCC1 [Example 118, 5-(dicyclopentylmethylidene)-2-(1′H,3H-spiro[2-benzofuran-1,4′-piperidin]-1′-yl)-1,3-thiazol-4(5H)-one] | – | 7.6 |
| O=C1N=C(N2CCC3(CC2)OCc2ccccc23)SC1=C(c1cccnc1)c1cccnc1 [Example 119, 5-[di(pyridin-3-yl)methylidene]-2-(1′H,3H-spiro[2-benzofuran-1,4′-piperidin]-1′-yl)-1,3-thiazol-4(5H)-one] | – | 7.6 |
| O=C1N=C(N2CCC3(CC2)OCc2ccccc23)SC1=C(CCl)CCl [Example 113, 5-(1,3-dichloropropan-2-ylidene)-2-(1′H,3H-spiro[2-benzofuran-1,4′-piperidin]-1′-yl)-1,3-thiazol-4(5H)-one] | – | 7.0 |
| O=C1N=C(N2CCC3(CC2)OCc2ccccc23)SC1=C1c2ccccc2C=Cc2ccccc21 [Example 99, 5-(5H-dibenzo[a,d][7]annulen-5-ylidene)-2-(1′H,3H-spiro[2-benzofuran-1,4′-piperidin]-1′-yl)-1,3-thiazol-4(5H)-one] | – | 8.4 |
| O=C1N=C(N2CCC3(CC2)OCc2ccccc23)SC1=C(CF)CF [Example 69, 5-(1,3-difluoropropan-2-ylidene)-2-(1′H,3H-spiro[2-benzofuran-1,4′-piperidin]-1′-yl)-1,3-thiazol-4(5H)-one] | – | 8.0 |
| C/C(=C1/SC(N2CCC3(CC2)OCc2cccnc23)=NC1=O)c1ccc(Cl)cc1 [Example 2, (5E/Z)-5-[1-(4-chlorophenyl)ethylidene]-2-(1′H,5H-spiro[furo[3,4-b]pyridine-7,4′-piperidin]-1′-yl)-1,3-thiazol-4(5H)-one] | – | 9.0 |
| O=C1N=C(N2CCC3(CC2)OCc2ccccc23)SC1=C1CCCCC1 [Example 52, 5-cyclohexylidene-2-(1′H,3H-spiro[2-benzofuran-1,4′-piperidin]-1′-yl)-1,3-thiazol-4(5H)-one] | – | 8.5 |
| [2H]C([2H])([2H])/C(=C1/SC(N2CCC3(CC2)OCc2ccccc23)=NC1=O)c1ccc(Cl)nc1 [Example 171, (5Z)-5-[1-(6-chloropyridin-3-yl)(^2H3)ethylidene]-2-(1′H,3H-spiro[2-benzofuran-1,4′-piperidin]-1′-yl)-1,3-thiazol-4(5H)-one] | – | 9.3 |
| CC/C(=C1\SC(N2CCC3(CC2)OCc2ccccc23)=NC1=O)c1ccc(Cl)nc1 [Example 134, (5E)-5-[1-(6-chloropyridin-3-yl)propylidene]-2-(1′H,3H-spiro[2-benzofuran-1,4′-piperidin]-1′-yl)-1,3-thiazol-4(5H)-one] | – | 8.0 |
| C/C(=C1/SC(N2CCC3(CC2)OCc2ccccc23)=NC1=O)c1ccco1 [Example 35, (5Z)-5-[1-(furan-2-yl)ethylidene]-2-(1′H,3H-spiro[2-benzofuran-1,4′-piperidin]-1′-yl)-1,3-thiazol-4(5H)-one] | – | 8.9 |
| C/C(=C1/SC(N2CCC3(CC2)OCc2ccccc23)=NC1=O)c1sc(C)nc1C [Example 112, (5E/Z)-5-[1-(2,4-dimethyl-1,3-thiazol-5-yl)ethylidene]-2-(1′H,3H-spiro[2-benzofuran-1,4′-piperidin]-1′-yl)-1,3-thiazol-4(5H)-one] | – | 8.6 |
| O=C1N=C(N2CCC3(CC2)OC(=O)c2ccccc23)SC1=C(C1CC1)C1CC1 [Example 139, 1′-[5-(dicyclopropylmethylidene)-4-oxo-4,5-dihydro-1,3-thiazol-2-yl]-3H-spiro[2-benzofuran-1,4′-piperidin]-3-one] | – | 8.5 |
